# Results taken from patent US20250186404A1, “METHODS OF USING A (THIAZOLYL)BENZENESULFONAMIDE DERIVATIVE” (Cyteir Therapeutics, Inc., priority 2023, published 2025).
# Key:
# [1] = tested on: Daudi (Burkitt Lymphoma) cells; assay: Intracellular Lactate Accumulation Assay (Lactate-Glo); assay type: cell-based, human; conditions: Homo sapiens; Daudi cells, 2 h treatment, intracellular lactate accumulation; read-out: LactateGlo EC50
# Experimental: Intracellular lactate accumulation after a 2 h treatment with compounds of the present invention was measured in Daudi (Burkitt Lymphoma) cells using the Lactate-Glo Assay (Promega).
# Daudi cells were seeded at 7,500 cells per well in 150 μL of growth medium (RPMI-1640 with 2 mM GlutaMAX+10% FBS) in clear, 96-well, flat-bottom microplates, and incubated overnight (37° C., 5% CO2). Compounds of the present invention were added using an INTEGRA VIAFLO 96 (8 point, 3-fold serial dilution, top concentration 1, 10, or 20 μM, 0.4% final DMSO concentration). After a 2 h incubation (37° C., 5% CO2) microplates containing cells were washed twice with 150 μL ice-cold PBS, resuspended in 25 μL ice-cold PBS containing 12.5 μL 0.6N HCl, and placed on a microplate shaker for 5 min to lyse the cells. Following lysis, 12.5 μL 1M Trizma base was added to neutralize the suspension, and microplates were returned to the microplate shaker for 1 min. Plates were sealed and stored at −20° C. until further processing. On the day of the assay, microplates were thawed for 45 min at room temperate and 50 μL Lactate Detection Reagent (prepared as specified by manufacturer) was added to each well. Microplates were placed on a plate shaker for 1 min and incubated at room temperature for 1 h. Luminescence was measured using a BioTek Cytation 5 Multi-Mode Reader. Curve fitting and calculation of EC50 was performed using GraphPad Prism.
# In addition, Daudi human lymphoma cells were treated with a titration of Compound 67A for 4 h, then intracellular lactate was measured via LactateGlo (FIG. 2). Compound 67A treatment elevates intracellular lactate (FIGS. 3-5). […] Inhibiting MCT function in glycolytic cancer cells leads to an accumulation of intracellular lactate that impairs glycolysis and inhibits tumor cell growth, thereby making MCTs an attractive target for cancer therapy. Compound 67A inhibits the import of MCT ligands into cells, and induces dose-dependent intracellular lactate accumulation that correlates with cytotoxicity. MCT4 expression inversely correlates with lactate accumulation and the extent of Compound 67A cytotoxicity in cells.
# human MCT1 = target: T1, human MCT1 (Homo sapiens, UniProt P53985); assay: MCT1 Transport Inhibition Assay (TPGA uptake, LC-MS/MS); assay type: cell-based; conditions: MDCK-II cells overexpressing human MCT1, TPGA transport; read-out: BioIVT MCT1 Transporter IC50
# T1 construct: host or cells: MDCK-II (canine) cells, transient co-transfection
# T1 sequence (P53985 1-500): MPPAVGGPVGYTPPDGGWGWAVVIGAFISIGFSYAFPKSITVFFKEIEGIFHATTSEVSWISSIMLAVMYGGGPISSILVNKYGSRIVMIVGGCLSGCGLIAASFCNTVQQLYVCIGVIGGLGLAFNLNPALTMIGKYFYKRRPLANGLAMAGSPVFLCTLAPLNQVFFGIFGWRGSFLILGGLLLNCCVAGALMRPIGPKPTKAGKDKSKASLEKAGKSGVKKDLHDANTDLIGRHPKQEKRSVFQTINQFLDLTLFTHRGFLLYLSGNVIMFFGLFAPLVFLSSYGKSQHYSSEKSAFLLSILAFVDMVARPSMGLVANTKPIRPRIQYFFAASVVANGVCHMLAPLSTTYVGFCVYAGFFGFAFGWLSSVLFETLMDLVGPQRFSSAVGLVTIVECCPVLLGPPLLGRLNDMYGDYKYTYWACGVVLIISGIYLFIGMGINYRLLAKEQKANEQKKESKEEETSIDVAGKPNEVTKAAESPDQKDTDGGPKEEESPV
# T1 sequence (P35613 140-385 partner limits assumed): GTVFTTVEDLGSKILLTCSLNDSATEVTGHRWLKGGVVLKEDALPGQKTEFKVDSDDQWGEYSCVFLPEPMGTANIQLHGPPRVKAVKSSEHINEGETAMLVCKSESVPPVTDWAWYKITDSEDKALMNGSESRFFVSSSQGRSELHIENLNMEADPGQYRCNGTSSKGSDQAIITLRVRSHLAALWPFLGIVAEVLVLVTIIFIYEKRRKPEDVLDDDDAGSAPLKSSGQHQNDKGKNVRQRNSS
# Experimental: Inhibition of MCT1 transport after treatment with compounds of the present invention was measured in MDCK-II cells that overexpress human MCT1 by quantifying the transport of 2-Thiophene-glycoxylic acid (TPGA) into cells using LC-MS/MS.
# MDCK-II cells are seeded at 60,000 cells per well in growth medium (low-glucose DMEM+10% FBS) in 96-well trans-well membrane plates, and incubated overnight (37° C., 5% CO2). Cells were co-transfected with mammalian expression constructs coding for MCT1 and CD147 at a 2:1 ratio or an empty vector control (GFP) and then incubated for 48 h (37° C., 5% CO2). Cells were washed 3 times with HBSS and cells were preincubated with inhibitors or vehicle control at room temperature in HBSS for 30 min with orbital shaking (60 rpm). HBSS was aspirated from the wells and replaced with HBSS with 25 mM Bis-Tris pH5.5+inhibitor or vehicle control+500 μM TPGA and incubated for 1 min at room temperature with orbital shaking (60 rpm). Both the apical and basolateral side of the trans-well insert were washed 4 times with ice-cold PBS. Cells were lysed with 60 μL of cell extraction solution, and the amount of TPGA in each well was quantified in triplicate by LC-MS/MS. The MCT1-mediated uptake rate was calculated using the following equation: […]
# Percent inhibition for each concentration of inhibitor tested was calculated using the following equation: […]
# Curves were fit to the calculated percent inhibition for each inhibitor, and the IC50 representing the concentration of inhibitor at which MCT1 is inhibited by 50% was calculated from this curve.
# Canine MDCKII cells expressing human MCT1 were treated with a titration of Compound 67A, and import of the MCT1 substrate, 2-TPGA was measured by LC-MS (FIG. 1).
EC50 [1] [µM],IC50 (human MCT1) [µM],Structure (SMILES)
< 0.05,–,CC(C)OC(=O)NC1CCC(c2ncc(-c3ccc(NC(=O)NCc4ccccc4)cc3S(=O)(=O)NC(C)(C)C)s2)CC1 (stereo not drawn) [Compound 62B]
> 5,–,COC(=O)NC1CCC(c2ncc(-c3ccc(NC(=O)OC(C)C)cc3S(=O)(=O)NC(C)(C)C)s2)CC1 (stereo not drawn) [Compound 76]
> 5,–,CNC(=N)Nc1ccc(-c2cnc(C3CCC(NC(=O)OC(C)C)CC3)s2)c(S(=O)(=O)NC(C)(C)C)c1 (stereo not drawn) [Compound 75]
> 5,1 to 5,CC(C)OC(=O)Nc1ccc(-c2cnc([C@H]3CC[C@@H](NC(=O)OC(C)C)CC3)s2)c(S(=O)(=O)NC(C)(C)C)c1 [Compound 67B]
–,0.15 to 1,CC(C)OC(=O)N[C@H]1CC[C@H](c2ncc(-c3ccc(NC(=O)NCc4ccccc4)cc3S(=O)(=O)NC(C)(C)C)s2)CC1 [Compound 62B]
